Laboratory results published in US20200270588A1, “GLUCOSYL TRANSFERASE POLYPEPTIDES AND METHODS OF USE” (Syngenta Participations AG, priority 2017, published 2020).

T1: Zea mays bx9 glucosyl transferase (C-terminally his tagged SEQ ID NO: 1) (Zea mays, UniProt B4G072)
T1 construct: His tag (C); made in house; host or cells: E. coli BL21 (DE3), pET24a
T1 sequence (B4G072 1-462): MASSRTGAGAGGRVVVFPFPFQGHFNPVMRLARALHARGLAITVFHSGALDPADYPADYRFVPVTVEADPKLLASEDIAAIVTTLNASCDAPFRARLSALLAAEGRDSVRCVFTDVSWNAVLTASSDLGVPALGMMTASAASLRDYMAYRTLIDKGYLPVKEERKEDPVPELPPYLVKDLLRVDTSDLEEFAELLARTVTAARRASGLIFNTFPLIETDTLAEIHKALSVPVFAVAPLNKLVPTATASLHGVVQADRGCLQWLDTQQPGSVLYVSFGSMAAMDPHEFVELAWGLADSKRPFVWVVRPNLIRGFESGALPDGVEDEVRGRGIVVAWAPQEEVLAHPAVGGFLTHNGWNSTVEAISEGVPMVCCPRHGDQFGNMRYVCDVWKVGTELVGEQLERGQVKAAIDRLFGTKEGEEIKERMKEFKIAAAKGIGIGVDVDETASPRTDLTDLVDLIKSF


Experiments:
Format in all cases: biochemical
[1] = target: T2, SEQ ID NO 23, mutant of Zea mays bx9 glucosyl transferase (Zea mays, UniProt B4G072, A334K/F21Y/L194C/M279F/S117V); test: UDP-Glo glucosyl transferase assay, purified enzyme; conditions: lower block, concentration printed only in upper block: V 0.300, VII 0.210; IV, VIII, XI, XXI, XX, XVIII, XVI, XV, XIV 0.200; others 1.000 mM
T2 construct: His tag (C); made in house
T2 sequence (B4G072 whole entry F21Y/S117V/L194C/M279F/A334K): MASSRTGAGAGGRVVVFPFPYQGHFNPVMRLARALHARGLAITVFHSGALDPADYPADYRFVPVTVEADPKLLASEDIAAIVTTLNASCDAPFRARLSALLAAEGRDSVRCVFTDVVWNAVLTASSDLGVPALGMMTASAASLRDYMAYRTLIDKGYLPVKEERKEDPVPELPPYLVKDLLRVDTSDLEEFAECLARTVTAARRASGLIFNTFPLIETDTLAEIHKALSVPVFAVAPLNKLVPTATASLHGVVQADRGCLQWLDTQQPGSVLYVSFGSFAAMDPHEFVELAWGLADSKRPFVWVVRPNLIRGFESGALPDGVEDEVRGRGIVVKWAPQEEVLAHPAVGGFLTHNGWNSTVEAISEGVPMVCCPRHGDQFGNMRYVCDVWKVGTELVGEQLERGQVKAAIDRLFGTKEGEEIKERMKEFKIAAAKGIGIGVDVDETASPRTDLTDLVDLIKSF
Experimental: (§1) Glucosyl transferase activity is assayed via measurement of acceptor substrate-dependent production of UDP from ultrapure UDP-glucose using the Promega UDP-Glo™ method and according to the manufacturer's instructions. Assays are run in 96 well microtiter plates.
(§2) Enzyme, typically at a stock concentration of ˜2 mg/ml is diluted to an appropriate concentration in 50 mM K^+ Hepes buffer at pH7.5 containing 0.5 mg/mL bovine serum albumin (BSA) and 5 ul aliquots of this diluted enzyme added to each well of a Perkin Elmer white ½ area 96 well plate. […] Assays are run for an appropriate time (usually 10 to 60 min) so that the amount of UDP formed lies within the most nearly linear part of the UDP standard curve and are stopped with the addition and mixing of 25 ul UDP-Glo™ detection reagent (prepared as described below). Plates are then incubated at room temperature for 60 minutes and then read in a luminescence plate reader (Perkin Elmer Envision 2130 Multilabel Reader). A UDP standard curve is run alongside each set of assays and reagent blank control assays run with DMSO in place of test herbicide. Typically, 300 pmol of UDP corresponds to a Relative Luminescence Unit (RLU) reading of about 1.5E7 and the response curve between 0 and 600 pmol is fitted to a polynomial function (see for example FIG. 2).
(§3) The UDP-Glo™ reagents are made up and used according to the manufacturer's instructions. Thus, Nucleotide Detection Buffer and ATP are combined to make nucleotide detection reagent (NDR) dispensed into aliquots and frozen to be freshly thawed before use. […]
(§4) Table 13 summarizes the results obtained from assays, run as described in Example 1, using a variety of alcohol and aminal PSII herbicides as substrates of the Zea mays bx9 w/t (i.e. C-terminally his tagged SEQ ID no 1) and various mutants of the same, selected from SEQ ID NO: 16-30). All of these proteins were C-terminally his-tagged, expressed and purified as described in Example 1. Assays were run and analyzed as described in example 1. It is seen that various of the mutations herein and combinations thereof led to significant improvements (over the w/t bx9 protein) in catalytic activity versus various of the herbicides and that these improvements are often of sufficient magnitude to be useful for conferring improved herbicide tolerance upon crop. This is especially the case given that even the unmutated w/t bx9 enzyme which has only modest glucosyl transferase activity (for example against compounds V and VI) was nevertheless adequately active to confer significant herbicide tolerance in the glass house (as shown in example 9) even without mutational improvement. It is also seen that particular mutations can lead to very much improved activity in respect of some chemistries but not to others but that, overall, there is at least one variant within the scope of the current invention that provides significant and useful improvement in tolerance to each of the chemistries tested.

[2] = target: T3, SEQ ID NO 19, mutant of Zea mays bx9 glucosyl transferase (Zea mays, UniProt B4G072, A281K/A334K/L194V/M279F/S117V); test: as above; conditions: herbicide mM: V 0.300, VI 0.250, VII 0.210; IV, VIII, XI, XXI, XX, XVIII, XVI, XV, XIV 0.200; others 1.000
T3 construct: His tag (C); made in house
T3 sequence (B4G072 whole entry S117V/L194V/M279F/A281K/A334K): as the sequence (B4G072 whole entry F21Y/S117V/L194C/M279F/A334K) above, with Y21F, C194V, A281K counted along it
Experimental: as §1, §2, §3, §4

[3] = target: T4, SEQ ID NO 18, mutant of Zea mays bx9 glucosyl transferase (Zea mays, UniProt B4G072, A281K/A334K/F21Y/M279F/S117V); test: as above; conditions: herbicide mM: V 0.300, VI 0.250, VII 0.210; IV, VIII, XI, XXI, XX, XVIII, XVI, XV, XIV 0.200; others 1.000
T4 construct: His tag (C); made in house
T4 sequence (B4G072 whole entry F21Y/S117V/M279F/A281K/A334K): as the sequence (B4G072 whole entry F21Y/S117V/L194C/M279F/A334K) above, with C194L, A281K counted along it
Experimental: as §1, §2, §3, §4

[4] = target: T5, SEQ ID NO 21, mutant of Zea mays bx9 glucosyl transferase (Zea mays, UniProt B4G072, A334K/F21Y/L194V/M279F/S117V); test: as above; conditions: lower block, concentration printed only in upper block: V 0.300, VII 0.210; IV, VIII, XI, XXI, XX, XVIII, XVI, XV, XIV 0.200; others 1.000 mM
T5 construct: His tag (C); made in house
T5 sequence (B4G072 whole entry F21Y/S117V/L194V/M279F/A334K): as the sequence (B4G072 whole entry F21Y/S117V/L194C/M279F/A334K) above, with C194V counted along it
Experimental: as §1, §2
(§5) The UDP-Glo™ reagents are made up and used according to the manufacturer's instructions. Thus, Nucleotide Detection Buffer and ATP are combined to make nucleotide detection reagent (NDR) dispensed into aliquots and frozen to be freshly thawed before use.
(§6) Km and kcat values in respect of UDP-glucose are derived by carrying out experiments to measure initial rates over a suitable range of concentrations of UDP glucose out at a fixed near saturating concentration of acceptor substrate. Best fit values of kcat, Km and kcat/Km are obtained by direct fitting of the data to the Michaelis-Menten equation using Graphpad Prism™ software.
(§7) Variants of C-terminally his tagged SEQ ID No:1 (w/t bx9 from Zea mays), exemplified as SEQ ID 16-30, were cloned, purified and assayed as described in Example 1. FIG. 4 depicts the data from some experiments to determine the kinetic parameters of some of these variants in respect of herbicide VI and table 12 summarizes the estimates of kinetic parameters obtained from further such experiments in respect of a range of herbicides.
as §4

[5] = target: T6, SEQ ID NO 17, zmBX9 S117V, M279F, A334K mutant (Zea mays, UniProt B4G072, A334K/M279F/S117V); test: as above; conditions: herbicide mM: V 0.300, VI 0.250, VII 0.210; IV, VIII, XI, XXI, XX, XVIII, XVI, XV, XIV 0.200; others 1.000
T6 construct: polypeptides were the C-terminally his-tagged; His tag (C); made in house
T6 sequence (B4G072 whole entry S117V/M279F/A334K): as the sequence (B4G072 whole entry F21Y/S117V/L194C/M279F/A334K) above, with Y21F, C194L counted along it
Experimental: as §1, §2, §5, §6, §7, §4

[6] = target: T7, SEQ ID NO 22, mutant of Zea mays bx9 glucosyl transferase (Zea mays, UniProt B4G072, A334K/F21Y/M279F/S117V/T220P); test: as above; conditions: lower block, concentration printed only in upper block: V 0.300, VII 0.210; IV, VIII, XI, XXI, XX, XVIII, XVI, XV, XIV 0.200; others 1.000 mM
T7 construct: His tag (C); made in house
T7 sequence (B4G072 whole entry F21Y/S117V/T220P/M279F/A334K): as the sequence (B4G072 whole entry F21Y/S117V/L194C/M279F/A334K) above, with C194L, T220P counted along it
Experimental: as §1, §2, §5, §6, §7, §4

[7] = target: T1, Zea mays bx9 glucosyl transferase (C-terminally his tagged SEQ ID NO: 1); test: as above; conditions: herbicide mM: V 0.300, VI 0.250, VII 0.210; IV, VIII, XI, XXI, XX, XVIII, XVI, XV, XIV 0.200; others 1.000
Experimental: as §1, §2, §5, §6

[8] = target: T8, SEQ ID NO 20, mutant of Zea mays bx9 glucosyl transferase (Zea mays, UniProt B4G072, A281K/A334K/F21Y/L194V/M279F/S117V); conditions: lower block, concentration printed only in upper block: V 0.300, VII 0.210; IV, VIII, XI, XXI, XX, XVIII, XVI, XV, XIV 0.200; others 1.000 mM
T8 construct: His tag (C); made in house
T8 sequence (B4G072 whole entry F21Y/S117V/L194V/M279F/A281K/A334K): as the sequence (B4G072 whole entry F21Y/S117V/L194C/M279F/A334K) above, with C194V, A281K counted along it
Experimental: as §1
as §2, with “herbicide.” for “herbicide. Typically, 300 pmol of UDP corresponds to a Relative Luminescence Unit (RLU) reading of about 1.5E7 and the response curve between 0 and 600 pmol is fitted to a polynomial function (see for example FIG. 2).”
as §5, §6
All of these proteins were C-terminally his-tagged, expressed and purified as described in Example 1. Assays were run and analyzed as described in example 1.

[9] = LC/MS plate assay of crude E. coli extracts, Zea mays bx8 derivatives, herbicide V; conditions: LC/MS
Experimental: In an alternative method for assaying the various enzymes, the test glucosyl transferase enzyme is reacted with substrates exactly as above except that the assay is stopped by adding an equal volume of acetonitrile. Alternatively 50 or 100 μl samples from assay reactions are added to 500 μl ethyl acetate to stop the reaction. In this case samples are then vortexed and 400 μl of the ethyl acetate partition removed, dried down, and resuspended in 100 μl 80:20 acetonitrile/water. The formation of product gluco side and/or disappearance of substrate test herbicide is then monitored directly by LC/MS. Samples are analyzed by LC-MS using an Agilent 1290 liquid chromatography system and Thermo Q-Exactive mass spectrometer. The chromatography is achieved on a Waters Acquity C18 BEH (50×2.1 mm) 1.7 μm particle size column, using a 6 minute gradient run of Water (0.2% formic acid) and Acetonitrile. The Q-Exactive is operated in positive ionisation electrospray mode, using Full scan-AIF mode, at 35,000 resolution, between 100-800 m/z. All analytes are identified from the full scan data to within at least 5 ppm accuracy of their predicted pseudo-molecular ion [M+H]^+ m/z value. In order to obtain quantitative data standard curves are run using herbicides and herbicide glucosides synthesized as standards. Where these synthetic glucosides were not available the LC/MS assay could only be used to provide relative data.
The glucosyl transferase activities of the mutant bx8-derived polypeptides expressed in these strains were initially assayed versus herbicide V as described in Example 1. The partly purified C-terminally his tagged w/t bx8 enzyme (SEQ ID No: 2) catalyzed glucosyl transfer to herbicide V at a low rate estimated to be less than about 0.002/s at 1 mM herbicide V which, because of a relatively high background of UDP formation in the DMSO (no substrate reagent control) was difficult to quantify using the luminescence assay. Thus further assays were run by LC/MS using which technique the formation of an O-beta glucosyl glucoside of herbicide V could more easily be confirmed but only quantified in a relative sense. Thus the various derivatives of C-terminally his tagged Zea mays bx8 SEQ ID No:2 were cloned and expressed in E. coli BL21 (DE3) as described in Example 1 and assayed in plates as crude extracts, as in Example 2, but monitored by LCMS rather than the luminescence assay.
The different stereoisomer standards chromatographed distinctly on LC (FIGS. 8A-8H). By comparing the LC elution profiles of the standards with the enzyme products at the correct mass it was possible to characterize which polypeptides catalyzed the formation of which O-glucosides. Assay samples and glucoside conjugate standards are run using the identical chromatographic conditions to allow us to identify the conjugate isomer formed in the assay. In short, as would be expected for inverting glucosyl transferases all of the bx enzymes tested produced beta glucoside products (from the alpha-UDP-glucose substrate) from all herbicides tested. But there can be subtle variations between enzymes in stereochemistry of the products made at other chiral centers.

Molecule | Activity [1] [pmol/sec/pmol enzyme] | Activity [2] [pmol/sec/pmol enzyme] | Activity [3] [pmol/sec/pmol enzyme] | Activity [4] [pmol/sec/pmol enzyme] | Activity [5] [pmol/sec/pmol enzyme] | Activity [6] [pmol/sec/pmol enzyme] | Activity [7] [pmol/sec/pmol enzyme] | Activity [8] [pmol/sec/pmol enzyme] | activity with herbicide V [9]
CN1CC(O)N(c2cc(C(C)(C)C)ncn2)C1=O (stereo not drawn) [IV] | 0.023 | 0.053 | 0.145 | 0.008 | 0.019 | 0.099 | 0.000 | 0.079 | 
C[C@@H]1C(=O)N(c2noc(C(C)(C)C)c2C#N)C(O)[C@H]1C (stereo partly drawn) [XXVI] | 0.034 | 0.095 | 0.051 | 0.040 | 0.020 | 0.073 | −0.001 | 0.143 | 
CN1CC(O)N(c2cc(C(C)(C)C)c(Cl)nn2)C1=O (stereo not drawn) [III] | 0.066 | 0.097 | 0.170 | 0.020 | 0.032 | 0.144 | 0.001 | 0.144 | 
C[C@@H]1C(O)N(c2noc(C(C)(C)C)c2C#N)C(=O)[C@@H]1C (stereo partly drawn) [XIII] | 0.034 | 0.095 | 0.051 | 0.040 | 0.020 | 0.073 | −0.001 | 0.143 | 
SEQ ID NO: 58: zmBX8/zmBX9 hybrid polypeptide (protein, Hybrid sequence between Zea mays Bx8 and Bx9 sequences, zmBX8/zmBX9 hybrid polypeptide) MAASCGGRVVVFPFPFQGHFNPVMRLARALHARGVGITVFHTAGARAPDPADYPADYRFVPVPVEVAPELMASEDIAAIVTALNAACEAPFRDRLSALLSAADGEAGEAGGRVRCVLTDVSWDAVLSAARGLGVPALGVMTASAATFRVYMAYRTLVDKGYLPVREERKDDAVAELPPYRVKDLLRHETCDLEEFADLLGRVIAAARLSSGLIFHTFPFIEAGTLGEIRDDMSVPVYAVAPLNKLVPTATASLHGVVQADRGCLQWLDAQRARSVLYVSFGSMAAMDPHEFVELAWGLADAGRPFVWVVRPNLIRGFESGALPDGVEDRVRGRGVVVSWAPQEEVLAHPAVGGFFTHCGWNSTVEAVSEGVPMICHPRHGDQYGNARYVCHVWKVGTEVAGDQLERGEIKAAIDRLMGGSEEGEGIRKRMNELKIAADKGIDESAGSDLTNLVHLINSY |  |  |  |  |  |  |  |  | active
